The record followed here is patent US8685726B2, “Small molecules supporting pluripotent cell growth and methods thereof” (Viacyte, Inc., priority 2009, dated 2014).

“Also recorded” adds a separate entry of the source.

What all share (format): cell-based, human
For assay [1], the system named is hES cells. Kind of assay: Low-density real-time cell index monitoring (RT-CES impedance reader). The following applies: for survival and expansion at low density, single factors and two-factor combinations: 50 μM (NE, ACh, Adenosine, GABA) or 10 μM (Y27632), 5 days; for time after plating at which cell index rises above background / expansion detectable: 50 μM each factor; for survival/proliferation compared to DMSO controls: StemPro hESC SFM HIA, low-density impedance assay. As for the experimental part:
FIG. 4. Titration of NE and ACh using the RT-CES impedance reader. 1000 hES cells/well were plated in StemPro® hESC SFM containing the indicated concentrations of small molecules (in μM). In such an assay, the timing of when the cell index rises is associated with the proportion of cells that survive and expand at low density.
FIG. 5. Combined effects of small molecules compound combinations in low cell density assays. (A) 1000 hES cells/well were plated in StemPro® hESC SFM containing small molecules at 50 μM (NE, ACh, Adenosine, GABA) or 10 μM (Y27632). The assay was carried out over 5 days using the RT-CES system.
FIG. 6. […] 1000 hES cells/well were plated in StemPro® hESC SFM containing Heregulin, IGF1 and Activin (HIA) and the indicated small molecules. […] Compounds were tested at 10 μM. The DMSO trace is an average of 8 wells. […] Compounds were tested at the indicated concentrations.
FIG. 7. […] 1000 hES cells/well were plated in StemPro® hESC SFM containing the indicated combinations of growth factors and small molecules. Heregulin (H), LR3-IGF1 (I), Activin (A).
FIG. 9. Low-density RT-CES assays of combinations of growth factors and neurotransmitters. 1000 hES cells/well were plated in StemPro® hESC SFM containing the indicated combinations of growth factors and small molecules. Heregulin (H), LR3-IGF1 (I), Activin (A). Small molecules were tested at 50 μM.
Furthermore, pluripotent cells can also be grown in 96-well culture devices that provide real-time measurements of impedance, which can be used to measure cell proliferation and viability using the RT-CES™ methods from ACEA Biosciences, Inc. (www (dot) aceabio (dot) com). Such an approach would enable a label-free identification and quantification of subtle or immediate effects on differentiable cells, as well as measurements of proliferation, apoptosis and changes to morphology, in real time.
To examine more closely the potency of individual neurotransmitters and determine if synergies exist between different factors, low-density assays were performed in real time using an impedance reader. The ACEA biosciences RT-CES system uses 96-well trays that contain embedded microsensors to monitor changes in electrical impedance, which is translated into a measure of cell index. Any overt alteration within a cell culture can be detected, including but not limited to cell proliferation, migration, cell spreading, apoptosis, differentiation and the like. […] Once an undifferentiated culture becomes confluent the cell index remains high, but tends to go down and up (scallop) between daily feedings. Conversely, differentiation is typically indicated by the appearance of distinctive patterns, such as peaks and troughs in the cell index, likely indicative of an epithelial-to-mesenchymal transition, flattening, cell migration, apoptosis or similar differentiation and growth related changes.
Human ES cells were plated at low density, 1000 cells/well, in RT-CES trays and cultured for 10 days (FIG. 4). Cells were plated directly in StemPro® hESC SFM containing carrier control (DMSO), NE, or ACh.

Assay [2] has as its system hES cells (e.g., BGO2 cells). Kind of assay: Low-density colony forming / colony counting assay (AP+ colonies). The settings on record: 10^4 cells/well, StemPro hESC SFM, 7 days; for support of colony formation at low density: compounds at 10 or 50 μM. As for the experimental part: FIG. 2. Low density plating assay of hES cells (e.g., BGO2 cells). 10000 cells/well were plated in 6-well trays in StemPro® hESC SFM (Life Technologies) medium and stained with alkaline phosphatase (AP+) after 7 days. Y (Y27632), ACh (acetylcholine), NMDA (N-methyl-D-aspartic acid), NE ((−)-Norepinephrine), NE.Bit ((±)-Norepinephrine (+)-bitartrate). Compounds were added at 10 or 50 μM as indicated.
FIG. 3. Low density plating assay of hES cells. (A) 200-10000 cells/well were plated in […] trays in StemPro® hESC SFM medium, or StemPro® hESC SFM +50 μM NE, or +50 μM ACh, and stained with alkaline phosphatase (AP+) after 8 days. […] ACh (acetylcholine), NE ((±)-Norepinephrine (+)-bitartrate). […]
About 10^4 hES cells/well were plated in 6-well trays in StemPro® hESC SFM, in the presence of different compounds and cultured for about 7 days. The cultures were then fixed, stained for alkaline phosphatase activity and colonies were counted (FIG. 2). […] The (±)-Norepinephrine (+)-bitartrate salt was used for all subsequent experiments involving norepinephrine (NE) unless specifically described otherwise.
A similar colony counting experiment was performed using a range of cell densities (FIG. 3). […] See Robins and Schulz 2009, supra. […]

For assay [3], the system named is CyT49 cells. The assay can be described thus: Suspension aggregate culture, cell counts and aggregate diameters. As for the experimental part:
FIG. 10. Effects of NE and ACh in suspension culture of hES cell. (A) 5×10^6 CyT49 cells were seeded in 5 ml StemPro® hESC SFM containing heregulin, LR3-IGF1, Activin and the indicated neurotransmitters at 50 μM in low-attachment 6-well trays and placed at 100 rpm. Undifferentiated suspension aggregates were imaged on day 4. (B) 24 hours after seeding, two wells from each condition were harvested and counted to determine the number of viable cells. (C) Cell counts of each condition when the cultures were split on day 4. (D) The images in (A) were used to determine aggregate diameters using the ImagePro software measurement tool. Average diameters and standard deviations from 50-100 aggregates from each condition are shown. (E) Passage 1 cell counting data. 5×10^6 CyT49 hES cells from p0 cells in (A) were seeded into the same conditions. The aggregates in the condition containing Y27632 were larger and had to be passaged 3 days after seeding, before the centers of the largest aggregates became necrotic. Conversely, the other conditions could be cultured for 6 days before passaging, resulting in higher cell counts.
FIG. 11. Suspension hES cell cultured with NE, […] remain undifferentiated. CyT49 cells were grown as suspension aggregates in the presence of NE, […] for 16 passages without differentiating morphologically. After p10, some cells were re-plated to adherent culture and examined by karyotyping and immunofluorescent staining for OCT4 and Tra-1-61. All cultures remained undifferentiated and expressed these pluripotency markers uniformly. (SP) StemPro® SFM HIA, NE (+NE at 50 μM), ACh (+ACh at 50 μM), NE/ACh (+NE/ACh at 50 μM). Karyotype data is shown to the right. […] Cultures containing ACh were aneuploid.
Small molecule ligands that support survival or self-renewal at low cell densities could also be expected to have beneficial effects in other culture formats. Applicants have previously developed a suspension culture system for hES cells that enables serial propagation of cells and effective expansion of cultures. Human ES cells, at least BG02 and CyT49 cells, have been maintained in suspension for greater than 10 passages without differentiation. The basis of the technique is to dissociate cultures to single cells with reagents that preserve high viability, such as Accutase™, TrypLE or cell dispersal buffer, then aggregate defined concentrations of cells in defined medium in rotational culture. These methods are described in more detail in International Application PCT/US2008/082356, entitled STEM CELL AGGREGATE SUSPENSION COMPOSITIONS AND METHODS OF DIFFERENTIATION THEREOF, filed Nov. 4, 2008; and International Application PCT/US2007/062755, entitled COMPOSITIONS AND METHODS FOR CULTURING DI[…], filed Feb. 23, 2007, which are herein incorporated by reference in their entireties. Self-aggregation of hES cells occurs in the absence of added extracellular matrix (ECM) or ECM-like proteins and is presumed to be driven in part by homotypic interaction of E-cadherin. The aggregates that are formed expand over 3-4 days and are kept apart from each other by the shear forces generated by rotational culture. Cells are blocked from differentiating by the self-renewal signaling provided by the defined medium and retain their pluripotent characteristics: marker expression, normal karyotype, and differentiation potential in vitro and in teratomas. […]

The mark [4] stands for this setting: 1000 cells/well, StemPro hESC SFM.

For `NCCCC(=O)O` [GABA], in assay [1] (1000 cells/well), the “survival and expansion at low density, single factors and two-factor combinations” value (from here on “survival and expansion at low density”) was “less effective”; the “survival/proliferation compared to DMSO controls” value was “lack of robust activity”. The “time after plating at which cell index rises above background / expansion detectable” value in assay [1] (setting [4]) was roughly 4.5 days.
Consider `COc1cc(CC(=O)O)ccc1O` [HVA, homovanillic acid], for which, in assay [1] (1000 cells/well), the “survival/proliferation compared to DMSO controls” value is “enhanced survival/proliferation”.
Consider `CN[C@H](CC(=O)O)C(=O)O` [NMDA, N-methyl-D-aspartic acid], for which the “support of colony formation at low density” value (from here on “support of colony formation”) in assay [2] is reported as “failed to support enhanced colony formation”. The “survival/proliferation compared to DMSO controls” value in assay [1] (1000 cells/well) is “lack of robust activity”.
For `C[C@@H](N)[C@H]1CC[C@H](C(=O)Nc2ccncc2)CC1` [Y27632], in assay [3] (passaged after 3 days), the “cells generated at passage 1” value was “about 1.2×10^7 cells”. In assay [3] (suspension, StemPro hESC SFM HIA, neurotransmitters 50 μM), the “aggregate size on day 4” value is reported as “fewer numbers of larger aggregates”. The “AP+ colonies counted” value in assay [2] (6-well trays) turned out to be 0 colonies. In assay [2], the “support of colony formation” value is on record as “did not support colony survival/expansion”. Moreover, the “survival and expansion at low density” value in assay [1] (1000 cells/well) was “did not survive or proliferate; also recorded: reduced the effects of NE, ACh, Adenosine and GABA”.
`Nc1ncnc2c1ncn2[C@@H]1O[C@H](CO)[C@@H](O)[C@H]1O` [adenosine]: in assay [2], the “support of colony formation” value was “supported elevated colony formation”. In addition, the “survival and expansion at low density” value in assay [1] (1000 cells/well) was “less effective”. In assay [1] (setting [4]), the “time after plating at which cell index rises above background / expansion detectable” value is roughly 4.5 days.
Regarding `NCCc1ccc(O)c(O)c1` [dopamine], the “survival/proliferation compared to DMSO controls” value in assay [1] (1000 cells/well) is reported as “enhanced survival/proliferation”.
With `NCCc1c[nH]cn1` [histamine], the “support of colony formation” value in assay [2] is “failed to support enhanced colony formation”. Further, in assay [1] (1000 cells/well), the “survival/proliferation compared to DMSO controls” value was “lack of robust activity”.
For the molecule `CN1CCCC1c1cccnc1` (stereo not shown) [nicotine], in assay [2], the “support of colony formation” value is listed as “failed to support enhanced colony formation”.
For the molecule `NCCc1c[nH]c2ccc(O)cc12` [serotonin], in assay [1] (1000 cells/well), the “survival/proliferation compared to DMSO controls” value is “enhanced survival/proliferation”.
For the molecule (−)-Norepinephrine, the “support of colony formation” value in assay [2] is on record as “supported elevated colony formation”.
Turning to heregulin, the “low cell density survival with a single growth factor” value in assay [1] (setting [4]) is listed as “did not support low cell density survival”.

B1: Activin: recombinant Activin A growth factor of the defined medium (protein, UniProt P08476 311-426, looked up)
Inhibin beta A chain: GLECDGKVNICCKKQFFVSFKDIGWNDWIIAPSGYHANYCEGECPSHIAGTSGSSLSFHSTVINHYRMRGHSPFANLKSCCVPTKLRPMSMLYYDDGQNIIKKDIQNMIVEECGCS
modifications: Inhibin beta A chain
As for B1, the “role in plating, survival and/or expansion at low cell density” value in assay [1] (low cell density) is on record as “major negative role”.
